Measurements: US4522752A, “Retro-inverso analogues of the bradykinin potentiating peptide BPP5a and methods for their preparation” (E.N.I. Ente Nazionale Idrocarburi, priority 1983, dated 1985)
Read-outs that look alike come from different tables or passages of the source. Where a SMILES comes first, the peptide text is derived from it. [ ]: non-standard residue; d: D form. The star is where a group is joined. Hyp = O=C(O)[C@@H]1C[C@@H](O)CN1; pGlu = O=C1CC[C@@H](C(=O)O)N1; Bn = c1ccc(C*)cc1

How the values were obtained:
[1] = biological target: T1, angiotensin conversion enzyme (Oryctolagus cuniculus, UniProt P12822); assay: Inhibition of the angiotensin conversion enzyme in vitro (method of Cushman and Cheung); assay type: biochemical; settings: enzyme isolated from rabbit lungs, read-out: I50
T1 construct: the enzyme isolated from rabbit lungs; from tissue; host or cells: rabbit lung
T1 sequence (P12822 34-1310): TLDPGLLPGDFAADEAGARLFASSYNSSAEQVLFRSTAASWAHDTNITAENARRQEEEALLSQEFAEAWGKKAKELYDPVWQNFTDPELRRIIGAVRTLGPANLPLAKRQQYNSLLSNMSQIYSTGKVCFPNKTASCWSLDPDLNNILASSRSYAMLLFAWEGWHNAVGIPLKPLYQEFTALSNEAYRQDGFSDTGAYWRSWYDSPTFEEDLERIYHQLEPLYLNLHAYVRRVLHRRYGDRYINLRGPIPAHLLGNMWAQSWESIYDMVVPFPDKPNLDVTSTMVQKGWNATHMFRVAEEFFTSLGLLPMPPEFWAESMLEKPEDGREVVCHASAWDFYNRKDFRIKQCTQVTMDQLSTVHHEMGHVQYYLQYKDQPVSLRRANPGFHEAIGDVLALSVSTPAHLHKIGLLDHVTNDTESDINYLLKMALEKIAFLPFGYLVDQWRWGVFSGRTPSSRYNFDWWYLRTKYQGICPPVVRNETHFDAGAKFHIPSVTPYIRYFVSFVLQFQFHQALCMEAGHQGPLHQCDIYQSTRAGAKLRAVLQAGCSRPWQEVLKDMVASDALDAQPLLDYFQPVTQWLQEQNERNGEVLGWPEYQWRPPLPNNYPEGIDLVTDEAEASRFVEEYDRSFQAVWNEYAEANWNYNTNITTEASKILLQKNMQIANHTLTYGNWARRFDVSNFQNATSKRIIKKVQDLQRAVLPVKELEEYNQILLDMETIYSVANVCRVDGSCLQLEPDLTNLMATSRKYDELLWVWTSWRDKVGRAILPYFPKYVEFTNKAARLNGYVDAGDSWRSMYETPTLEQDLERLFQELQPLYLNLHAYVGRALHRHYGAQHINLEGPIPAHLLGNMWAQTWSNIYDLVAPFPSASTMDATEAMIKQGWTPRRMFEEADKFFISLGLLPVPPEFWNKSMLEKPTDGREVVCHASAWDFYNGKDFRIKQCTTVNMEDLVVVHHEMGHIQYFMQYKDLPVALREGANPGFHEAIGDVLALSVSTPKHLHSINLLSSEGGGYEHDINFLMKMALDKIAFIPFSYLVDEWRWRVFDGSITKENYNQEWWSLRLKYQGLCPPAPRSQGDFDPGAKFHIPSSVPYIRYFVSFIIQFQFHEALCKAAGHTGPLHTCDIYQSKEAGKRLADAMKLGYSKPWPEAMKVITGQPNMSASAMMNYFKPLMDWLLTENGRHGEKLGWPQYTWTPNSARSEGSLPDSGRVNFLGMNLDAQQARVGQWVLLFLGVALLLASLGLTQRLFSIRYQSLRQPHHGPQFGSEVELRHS
Description: The inhibition of the angiotensin conversion enzyme by the compounds of general formula (I) is measured in vitro by the enzyme isolated from rabbit lungs by the method of Cushman and Cheung [Biochem. Pharmacol., 20, 1637 (1971)].

[2] = biological target: T1, angiotensin conversion enzyme; settings: literature value given in Table 1; read-out: I50 (lit.); cited from earlier work
[3] = oral administration; needs intravenous administration; cited from earlier work

`C[C@H](NC(=O)[C@H](Cc1ccccc1)NC(=O)[C@H](CCCCN)NC(=O)[C@@H]1CCC(=O)N1)C(=O)N1C[C@H](OCc2ccccc2)C[C@H]1C(=O)O` [Glp--Lys--Phe--Ala--Hyp(OBz), pyroglutamyl-lysyl-phenylalanyl-alanyl-(4-benzyloxy)-proline] ([pGlu]KFA[Hyp](Bn)-OH) gave an IC50 [1] of 110 nM.
With `C[C@H](NC(=O)C(Cc1ccccc1)C(=O)N[C@H](CCCCN)C(=O)NC1CCC(=O)N1)C(=O)N1CCC[C@H]1C(=O)O` (stereo partly drawn) [gGlp--D-Lys--mPhe--Ala--Pro, gem-pyroglutamyl-D-lysyl-(R,S)-malonyl-(2-benzyl)-alanyl-proline] the IC50 [1] was 85000 nM.
In the case of `C[C@H](NC(=O)[C@H](Cc1ccccc1)NC(=O)[C@H](CCCCN)NC(=O)[C@@H]1CCC(=O)N1)C(=O)N1CCC[C@H]1C(=O)O` [Glp--Lys--Phe--Ala--Pro] ([pGlu]KFAP-OH), the IC50 [1] is given as 130 nM and the IC50 [2] is given as 70 nM.
For `CC[C@H](C)[C@H](NC(=O)[C@H](CCC(N)=O)NC(=O)[C@@H]1CCCN1C(=O)[C@H](CCCNC(=N)N)NC(=O)[C@@H]1CCCN1C(=O)[C@H](Cc1c[nH]c2ccccc12)NC(=O)[C@@H]1CCC(=O)N1)C(=O)N1CCC[C@H]1C(=O)N1CCC[C@H]1C(=O)O` [teprotide], the oral activity [3] is given as “inactive orally”.
